PMC12062745, “The immunostimulatory activity of Epimedium flavonoids involves toll-like receptor 7/8” (Frontiers in Pharmacology, 2025)

Key:
Test in all cases: SPR (Biacore S200)
Type in all cases: binding
recombinant mouse TLR7 = biological target: T1, recombinant mouse TLR7 (Mus musculus, UniProt P58681); conditions: 80 μM compound
T1 construct: recombinant from Escherichia coli supernatant
T1 sequence (P58681 27-1050): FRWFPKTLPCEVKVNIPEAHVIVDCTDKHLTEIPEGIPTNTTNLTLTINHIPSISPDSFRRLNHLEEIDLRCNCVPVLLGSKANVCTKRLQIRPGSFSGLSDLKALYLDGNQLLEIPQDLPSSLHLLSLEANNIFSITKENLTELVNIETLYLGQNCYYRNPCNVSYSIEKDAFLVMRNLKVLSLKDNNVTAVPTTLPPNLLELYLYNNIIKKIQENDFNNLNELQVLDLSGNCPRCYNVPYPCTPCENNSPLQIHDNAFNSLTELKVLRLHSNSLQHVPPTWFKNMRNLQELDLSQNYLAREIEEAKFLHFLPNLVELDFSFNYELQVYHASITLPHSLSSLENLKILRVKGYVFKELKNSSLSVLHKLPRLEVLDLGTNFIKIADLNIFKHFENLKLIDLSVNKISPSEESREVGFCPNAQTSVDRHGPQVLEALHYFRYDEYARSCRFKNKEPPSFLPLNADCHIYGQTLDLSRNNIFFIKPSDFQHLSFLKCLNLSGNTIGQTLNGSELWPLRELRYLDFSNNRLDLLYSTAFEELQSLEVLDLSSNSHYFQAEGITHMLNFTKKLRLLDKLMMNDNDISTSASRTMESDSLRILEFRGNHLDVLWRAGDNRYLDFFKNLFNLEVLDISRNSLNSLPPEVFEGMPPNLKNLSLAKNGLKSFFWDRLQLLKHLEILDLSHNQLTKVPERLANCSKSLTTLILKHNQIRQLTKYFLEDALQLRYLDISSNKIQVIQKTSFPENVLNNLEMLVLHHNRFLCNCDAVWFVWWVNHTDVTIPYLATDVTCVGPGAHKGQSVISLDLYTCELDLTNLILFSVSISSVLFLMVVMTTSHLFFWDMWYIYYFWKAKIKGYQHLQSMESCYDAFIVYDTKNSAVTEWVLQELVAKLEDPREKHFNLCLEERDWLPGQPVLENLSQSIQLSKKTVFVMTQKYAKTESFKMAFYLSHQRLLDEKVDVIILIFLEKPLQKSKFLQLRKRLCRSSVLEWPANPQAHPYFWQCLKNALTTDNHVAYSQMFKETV

recombinant mouse TLR8 [1] = biological target: T2, recombinant mouse TLR8 (Mus musculus, UniProt P58682); conditions: read-out: KD8
T2 construct: recombinant from Escherichia coli supernatant
T2 sequence (P58682 24-1032): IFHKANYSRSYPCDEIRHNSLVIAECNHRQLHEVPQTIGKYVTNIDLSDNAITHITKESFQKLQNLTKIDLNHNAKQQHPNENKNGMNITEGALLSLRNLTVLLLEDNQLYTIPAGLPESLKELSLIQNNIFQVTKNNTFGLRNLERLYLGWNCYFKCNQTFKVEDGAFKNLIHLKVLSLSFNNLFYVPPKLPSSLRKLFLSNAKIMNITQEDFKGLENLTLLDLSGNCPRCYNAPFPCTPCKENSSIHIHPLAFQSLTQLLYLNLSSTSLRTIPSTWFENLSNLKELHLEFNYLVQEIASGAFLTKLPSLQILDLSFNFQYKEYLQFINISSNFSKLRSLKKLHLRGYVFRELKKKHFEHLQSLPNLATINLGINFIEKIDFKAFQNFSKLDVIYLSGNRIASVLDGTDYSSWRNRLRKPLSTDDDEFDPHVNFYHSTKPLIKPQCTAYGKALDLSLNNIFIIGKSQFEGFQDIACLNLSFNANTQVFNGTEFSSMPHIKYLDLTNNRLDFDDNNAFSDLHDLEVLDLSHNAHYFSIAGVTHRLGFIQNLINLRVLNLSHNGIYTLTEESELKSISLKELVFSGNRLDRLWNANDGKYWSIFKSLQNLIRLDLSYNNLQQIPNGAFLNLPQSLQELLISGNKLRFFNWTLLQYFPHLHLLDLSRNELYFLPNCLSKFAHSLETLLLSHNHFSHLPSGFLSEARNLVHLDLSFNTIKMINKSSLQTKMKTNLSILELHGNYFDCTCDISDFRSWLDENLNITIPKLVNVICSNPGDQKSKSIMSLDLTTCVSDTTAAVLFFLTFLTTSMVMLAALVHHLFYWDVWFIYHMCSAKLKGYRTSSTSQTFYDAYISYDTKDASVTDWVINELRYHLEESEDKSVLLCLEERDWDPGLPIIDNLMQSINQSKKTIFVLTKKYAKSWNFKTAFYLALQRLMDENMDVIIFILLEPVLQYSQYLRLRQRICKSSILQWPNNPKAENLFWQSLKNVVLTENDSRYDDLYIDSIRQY

recombinant mouse TLR8 [2] = biological target: T2, recombinant mouse TLR8; conditions: 80 μM compound

| Kd (recombinant mouse TLR8 [1]) | response value (RU) (recombinant mouse TLR8 [2]) | Structure (SMILES) | SPR (Biacore S200) (recombinant mouse TLR7) |
| --- | --- | --- | --- |
| 10.3 µM |  | COc1ccc(-c2oc3c(CC=C(C)C)c(O)cc(O)c3c(=O)c2O[C@@H]2O[C@@H](C)[C@H](O)[C@@H](O)[C@H]2O)cc1 [icariin II] | SPR analysis revealed that icariin II exhibited the highest binding response to TLR7 |
|  | 43 RU | COc1ccc(-c2oc3c(CC=C(C)C)c(O[C@@H]4O[C@H](CO)[C@@H](O)[C@H](O)[C@H]4O)cc(O)c3c(=O)c2O)cc1 [icariin I] |  |
